Assay results: ChEMBL document CHEMBL4364295, “Discovery of a First-in-Class Receptor Interacting Protein 2 (RIP2) Kinase Specific Clinical Candidate, 2-((4-(Benzo[d]thiazol-5-ylamino)-6-(tert-butylsulfonyl)quinazolin-7-yl)oxy)ethyl Dihydrogen Phosphate, for the Treatment of Inflammatory Diseases” (J Med Chem, 2019); call rule not given here
pIC50: −log10 of the molar value. ≈ marks a conversion by molar mass, not a printed value. Values belong to the compound of their own block, whether it stands above or below them.

Columns and labels:
[1] = Prodrug conversion in human hepatocytes assessed as 2-(4-(benzo[d]thiazol-5-ylamino)-7-(2-hydroxyethoxy)quinazolin-6-ylsulfonyl)-2-methylpropan-1-ol formation at 20 uM measured after 4 hrs; type: ADME, cell-based, Hepatocyte
[2] = Drug uptake in Han Wistar rat skin at 2 mg/kg, iv administered as infusion for 4 hrs; type: ADME, organism-based, Zone of skin; details: in vivo
[3] = Prodrug conversion in rat hepatocytes assessed as dephosphorylation at 20 uM measured after 4 hrs; type: ADME, cell-based, Hepatocyte
[4] = Prodrug conversion in rat hepatocytes assessed as (2S,3S,4S,5R,6R)-6-(2-(4-(benzo[d]thiazol-5-ylamino)-6-(tert-butylsulfonyl)quinazolin-7-yloxy)ethoxy)-3,4,5-trihydroxytetrahydro-2H-pyran-2-carboxylic acid formation at 20 uM measured after 4 hrs; type: ADME, cell-based, Hepatocyte
[5] = Prodrug conversion in minipig hepatocytes assessed as (2S,3S,4S,5R,6R)-6-(2-(4-(benzo[d]thiazol-5-ylamino)-6-(tert-butylsulfonyl)quinazolin-7-yloxy)ethoxy)-3,4,5-trihydroxytetrahydro-2H-pyran-2-carboxylic acid formation at 20 uM measured after 4 hrs; type: ADME, cell-based, Sus scrofa, Hepatocyte; details: pig
Cytochrome P450 3A4 = Cytochrome P450 3A4 (Homo sapiens, UniProt P08684); experiment: Inhibition of CYP3A4 (unknown origin); type: ADME
Cytochrome P450 3A4, sequence (P08684 whole entry): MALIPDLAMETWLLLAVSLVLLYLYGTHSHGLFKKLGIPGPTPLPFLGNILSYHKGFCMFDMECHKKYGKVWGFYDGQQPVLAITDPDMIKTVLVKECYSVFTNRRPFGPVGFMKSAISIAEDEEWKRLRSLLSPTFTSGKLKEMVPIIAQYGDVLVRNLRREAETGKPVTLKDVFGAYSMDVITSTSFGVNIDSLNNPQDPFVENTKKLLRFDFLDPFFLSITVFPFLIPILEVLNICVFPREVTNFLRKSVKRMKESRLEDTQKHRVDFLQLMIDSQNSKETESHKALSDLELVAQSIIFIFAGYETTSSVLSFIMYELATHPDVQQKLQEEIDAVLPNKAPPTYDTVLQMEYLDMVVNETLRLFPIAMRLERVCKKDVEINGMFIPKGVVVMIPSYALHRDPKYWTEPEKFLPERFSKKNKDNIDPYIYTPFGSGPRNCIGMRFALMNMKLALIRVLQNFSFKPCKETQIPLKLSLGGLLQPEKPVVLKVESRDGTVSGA

[6] = Cmax in Beagle dog assessed as 2-((4-(Benzo[d]thiazol-5-ylamino)-6-(tert-butylsulfonyl)quinazolin-7-yl)oxy)ethanol level at 2 mg/kg, po by LC/MS/MS analysis; type: ADME, organism-based, Canis lupus familiaris; set-up: dose 2 mg/kg, route oral; details: in vivo
[7] = Solubility of the compound in FeSSIF; type: physicochemical; details: simulated gi fluid
[8] = Prodrug conversion in minipig hepatocytes assessed as benzothiazole ring opening at 20 uM measured after 4 hrs; type: ADME, cell-based, Sus scrofa, Hepatocyte; details: pig
[9] = Volume of distribution at steady state in Gottingen minipig assessed as 2-((4-(Benzo[d]thiazol-5-ylamino)-6-(tert-butylsulfonyl)quinazolin-7-yl)oxy)ethanol level at 2 mg/kg, po or 1 mg/kg, iv by LC/MS/MS analysis; type: ADME, organism-based, Sus scrofa; details: pig, in vivo
[10] = Prodrug conversion in human hepatocytes assessed as benzothiazole ring opening at 20 uM measured after 4 hrs; type: ADME, cell-based, Hepatocyte
[11] = Volume of distribution at steady state in Sprague-Dawley rat assessed as 2-((4-(Benzo[d]thiazol-5-ylamino)-6-(tert-butylsulfonyl)quinazolin-7-yl)oxy)ethanol level at 2 mg/kg, po or 1.1 mg/kg, iv by LC/MS/MS analysis; type: ADME, organism-based; details: in vivo
[12] = Prodrug conversion in Han Wistar rat colon assessed as 2-((4-(Benzo[d]thiazol-5-ylamino)-6-(tert-butylsulfonyl)quinazolin-7-yl)oxy)ethanol formation at 2 mg/kg, iv administered as infusion for 4 hrs; type: ADME, organism-based; details: in vivo
[13] = target: Vascular endothelial growth factor receptor 2 (Homo sapiens) (UniProt P35968); experiment: Inhibition of human VEGFR2 at 1 uM using poly[Glu:Tyr] (4:1) as substrate in presence of [gamma-33P]ATP relative to control
Vascular endothelial growth factor receptor 2 (Homo sapiens), sequence (P35968 whole entry): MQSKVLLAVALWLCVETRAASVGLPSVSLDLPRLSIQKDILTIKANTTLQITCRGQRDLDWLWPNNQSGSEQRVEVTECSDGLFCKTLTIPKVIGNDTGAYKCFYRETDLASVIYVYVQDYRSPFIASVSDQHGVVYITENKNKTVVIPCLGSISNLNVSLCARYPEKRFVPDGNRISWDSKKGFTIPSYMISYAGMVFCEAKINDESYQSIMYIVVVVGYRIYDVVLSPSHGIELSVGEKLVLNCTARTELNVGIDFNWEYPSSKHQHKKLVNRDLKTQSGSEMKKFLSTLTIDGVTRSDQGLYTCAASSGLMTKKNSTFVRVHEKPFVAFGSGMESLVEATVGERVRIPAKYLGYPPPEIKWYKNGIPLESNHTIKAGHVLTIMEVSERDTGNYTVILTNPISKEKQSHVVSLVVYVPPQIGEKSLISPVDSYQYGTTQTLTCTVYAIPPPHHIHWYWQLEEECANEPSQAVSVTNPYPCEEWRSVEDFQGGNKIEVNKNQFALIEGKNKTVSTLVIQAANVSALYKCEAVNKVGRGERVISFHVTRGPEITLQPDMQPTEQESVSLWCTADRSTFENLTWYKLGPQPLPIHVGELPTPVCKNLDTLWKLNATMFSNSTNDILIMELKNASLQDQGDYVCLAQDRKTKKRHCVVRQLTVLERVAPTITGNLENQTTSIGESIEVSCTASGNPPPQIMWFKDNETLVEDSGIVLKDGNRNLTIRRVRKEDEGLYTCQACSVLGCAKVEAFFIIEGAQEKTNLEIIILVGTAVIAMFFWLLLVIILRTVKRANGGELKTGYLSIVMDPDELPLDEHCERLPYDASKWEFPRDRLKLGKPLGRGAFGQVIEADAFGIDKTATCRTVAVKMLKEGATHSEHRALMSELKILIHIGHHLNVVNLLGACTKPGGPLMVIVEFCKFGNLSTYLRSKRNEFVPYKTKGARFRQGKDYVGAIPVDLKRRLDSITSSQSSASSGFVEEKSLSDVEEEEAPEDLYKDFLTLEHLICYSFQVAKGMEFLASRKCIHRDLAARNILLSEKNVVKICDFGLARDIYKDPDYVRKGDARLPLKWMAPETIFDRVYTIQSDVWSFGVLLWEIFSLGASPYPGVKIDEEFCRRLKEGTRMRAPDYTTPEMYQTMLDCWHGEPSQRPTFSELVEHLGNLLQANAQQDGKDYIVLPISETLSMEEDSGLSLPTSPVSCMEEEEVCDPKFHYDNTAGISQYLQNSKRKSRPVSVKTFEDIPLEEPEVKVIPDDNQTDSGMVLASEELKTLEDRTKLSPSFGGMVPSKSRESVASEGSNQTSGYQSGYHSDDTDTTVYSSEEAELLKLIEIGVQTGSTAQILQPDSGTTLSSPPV

[14] = Inhibition of TNFR in human monocytes assessed as reduction in TNFalpha-induced IL8 production; type: cell-based
[15] = Solubility of the compound in FaSSIF measured after 4 hrs; type: physicochemical
Toll-like receptor 7 = target: T1, Toll-like receptor 7 (Homo sapiens, UniProt Q9NYK1); experiment: Inhibition of TLR7 in human monocytes assessed as reduction in gardiquimod-induced IL8 production; type: cell-based
T1 sequence (Q9NYK1 whole entry): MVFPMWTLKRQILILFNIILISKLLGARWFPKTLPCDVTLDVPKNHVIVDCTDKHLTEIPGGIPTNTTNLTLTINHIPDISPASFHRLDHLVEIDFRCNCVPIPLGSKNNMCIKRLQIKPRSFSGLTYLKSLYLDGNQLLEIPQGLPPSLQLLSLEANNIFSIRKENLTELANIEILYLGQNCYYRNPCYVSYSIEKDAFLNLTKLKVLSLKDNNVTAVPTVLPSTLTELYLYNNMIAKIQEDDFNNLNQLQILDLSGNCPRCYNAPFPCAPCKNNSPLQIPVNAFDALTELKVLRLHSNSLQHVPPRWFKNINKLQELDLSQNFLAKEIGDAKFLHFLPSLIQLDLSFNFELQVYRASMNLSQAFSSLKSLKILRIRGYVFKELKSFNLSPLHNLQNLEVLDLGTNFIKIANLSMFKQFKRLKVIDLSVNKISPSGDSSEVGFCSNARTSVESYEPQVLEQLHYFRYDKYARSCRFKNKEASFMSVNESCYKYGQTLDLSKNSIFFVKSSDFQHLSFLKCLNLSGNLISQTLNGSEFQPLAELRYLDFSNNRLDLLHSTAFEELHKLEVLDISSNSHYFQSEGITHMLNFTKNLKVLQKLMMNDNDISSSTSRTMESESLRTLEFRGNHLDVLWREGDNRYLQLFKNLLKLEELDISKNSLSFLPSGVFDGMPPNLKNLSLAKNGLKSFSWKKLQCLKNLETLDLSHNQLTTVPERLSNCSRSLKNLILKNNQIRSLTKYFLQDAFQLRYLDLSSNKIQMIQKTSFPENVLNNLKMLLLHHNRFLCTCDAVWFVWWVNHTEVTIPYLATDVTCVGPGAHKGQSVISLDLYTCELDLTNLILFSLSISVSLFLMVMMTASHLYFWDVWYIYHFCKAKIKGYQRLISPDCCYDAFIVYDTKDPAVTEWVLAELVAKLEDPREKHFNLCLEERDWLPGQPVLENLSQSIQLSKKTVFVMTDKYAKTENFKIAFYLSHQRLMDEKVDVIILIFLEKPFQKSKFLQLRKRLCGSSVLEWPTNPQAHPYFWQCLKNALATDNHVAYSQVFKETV

[16] = Dose normalized AUC in Sprague-Dawley rat at 60 mg/kg, po using crystalline sample during 7 day dose ranging study by LC/MS/MS analysis; type: ADME, organism-based; details: in vivo, 168 h
[17] = Cmax in Sprague-Dawley rat at 20 mg/kg, po using crystalline sample during 7 day dose ranging study by LC/MS/MS analysis; type: ADME, organism-based; set-up: dose 20 mg/kg, route oral; details: in vivo
[18] = Cmax in Gottingen minipig at 1 mg/kg, po by LC/MS/MS analysis; type: ADME, organism-based, Sus scrofa; set-up: dose 1 mg/kg, route oral; details: pig, in vivo
[19] = target: Serine/threonine-protein kinase 10 (Homo sapiens) (UniProt O94804); experiment: Inhibition of human STK10 at 1 uM using RLGRDKYKTLRQIRQ as substrate in presence of [gamma-33P]ATP relative to control
Serine/threonine-protein kinase 10 (Homo sapiens), sequence (O94804 whole entry, looked up): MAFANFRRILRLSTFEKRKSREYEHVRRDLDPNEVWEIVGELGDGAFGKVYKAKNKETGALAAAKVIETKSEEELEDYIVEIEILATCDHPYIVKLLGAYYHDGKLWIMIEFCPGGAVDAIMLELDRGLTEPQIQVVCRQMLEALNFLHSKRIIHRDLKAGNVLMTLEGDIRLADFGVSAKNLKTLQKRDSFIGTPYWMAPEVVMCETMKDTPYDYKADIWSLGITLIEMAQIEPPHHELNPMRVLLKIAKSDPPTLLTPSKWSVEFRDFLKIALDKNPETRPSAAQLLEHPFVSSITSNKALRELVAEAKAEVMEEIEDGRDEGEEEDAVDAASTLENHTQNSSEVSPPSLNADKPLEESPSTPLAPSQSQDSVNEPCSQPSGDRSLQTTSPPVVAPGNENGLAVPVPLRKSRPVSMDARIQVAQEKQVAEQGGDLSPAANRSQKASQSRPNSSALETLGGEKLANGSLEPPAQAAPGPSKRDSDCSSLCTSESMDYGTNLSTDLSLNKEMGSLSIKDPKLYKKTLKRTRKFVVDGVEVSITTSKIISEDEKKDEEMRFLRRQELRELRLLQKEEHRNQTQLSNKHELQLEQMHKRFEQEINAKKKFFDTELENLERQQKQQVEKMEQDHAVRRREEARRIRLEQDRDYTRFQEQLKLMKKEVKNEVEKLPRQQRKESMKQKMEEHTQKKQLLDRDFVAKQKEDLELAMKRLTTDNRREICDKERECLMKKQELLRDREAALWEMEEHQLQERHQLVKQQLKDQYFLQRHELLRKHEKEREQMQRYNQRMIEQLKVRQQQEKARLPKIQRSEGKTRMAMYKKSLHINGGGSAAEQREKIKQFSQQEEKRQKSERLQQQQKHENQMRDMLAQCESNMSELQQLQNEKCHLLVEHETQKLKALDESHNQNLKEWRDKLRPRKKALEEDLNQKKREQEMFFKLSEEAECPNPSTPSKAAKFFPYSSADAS

[20] = Cmax in Sprague-Dawley rat at 60 mg/kg, po using crystalline sample during 7 day dose ranging study by LC/MS/MS analysis; type: ADME, organism-based; set-up: dose 60 mg/kg, route oral; details: in vivo
[21] = Clearance in Beagle dog at 2 mg/kg, po or 1.1 mg/kg, iv by LC/MS/MS analysis; type: ADME, organism-based, Canis lupus familiaris; details: in vivo
[22] = Cmax in Sprague-Dawley rat at 200 mg/kg, po using crystalline sample during 7 day dose ranging study by LC/MS/MS analysis; type: ADME, organism-based; set-up: dose 200 mg/kg, route oral; details: in vivo
[23] = AUC in Sprague-Dawley rat at 60 mg/kg, po using crystalline sample during 7 day dose ranging study by LC/MS/MS analysis; type: ADME, organism-based; details: in vivo
[24] = target: Receptor-interacting serine/threonine-protein kinase 2 (Homo sapiens, UniProt O43353); experiment: Inhibition of RIPK2 in human whole blood assessed as reduction in MDP-induced TNFalpha production preincubated for 30 mins followed by MDP-stimulation and measured after 6 hrs by immunoassay; type: tissue-based
Receptor-interacting serine/threonine-protein kinase 2, sequence (O43353 whole entry): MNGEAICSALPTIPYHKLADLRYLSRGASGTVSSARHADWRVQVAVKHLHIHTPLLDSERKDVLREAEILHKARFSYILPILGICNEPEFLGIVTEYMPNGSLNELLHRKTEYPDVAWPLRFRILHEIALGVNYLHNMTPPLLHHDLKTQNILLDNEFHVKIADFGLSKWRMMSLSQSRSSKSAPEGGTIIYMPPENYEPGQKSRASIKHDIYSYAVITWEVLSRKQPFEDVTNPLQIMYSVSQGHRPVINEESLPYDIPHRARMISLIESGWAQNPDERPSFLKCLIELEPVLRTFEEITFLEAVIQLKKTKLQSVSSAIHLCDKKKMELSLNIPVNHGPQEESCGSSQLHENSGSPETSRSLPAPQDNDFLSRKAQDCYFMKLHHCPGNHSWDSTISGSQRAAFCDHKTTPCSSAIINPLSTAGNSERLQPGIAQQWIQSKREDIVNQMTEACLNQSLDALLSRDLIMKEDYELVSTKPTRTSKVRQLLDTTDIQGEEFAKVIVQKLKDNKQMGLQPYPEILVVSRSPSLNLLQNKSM

- Drug metabolism [1]: Metabolite_Detected
- Drug uptake [2]: Not Active
- Drug metabolism [3]: Metabolite_Detected
- Drug metabolism [4]: Metabolite_Detected
- Drug metabolism [5]: Metabolite_Detected
- pIC50 (Cytochrome P450 3A4): < 4.52
- Cmax [6]: 840 ng/mL
- solubility [7]: Soluble
- Drug metabolism [8]: Metabolite_Detected
- Vdss [9]: 2.1 L/kg
- Drug metabolism [10]: Metabolite_Detected
- Vdss [11]: 2.1 L/kg
- Drug metabolism [12]: Metabolite_Detected
SMILES: CC(C)(C)S(=O)(=O)c1cc2c(Nc3ccc4scnc4c3)ncnc2cc1OCCOP(=O)(O)O.[CaH2]

- inhibition [13]: 70 to 90%
- pIC50 [14]: < 5.00
- solubility at 4 h [15]: 4 µg/mL (≈ 8.72 µM)
- pIC50 (Toll-like receptor 7): < 5.00
- AUC/dose [16]: 0.39 kg·h/L
- Cmax [17]: 900 ng/mL
- Cmax [18]: 31 ng/mL
- inhibition [19]: 70 to 90%
- Cmax [20]: 2100 ng/mL
- clearance [21]: 9.9 mL/min/kg
- Cmax [22]: 4900 ng/mL
- AUC at 168 h [23]: 23400 ng·h/mL
- pIC50 [24]: 7.59
SMILES: CC(C)(C)S(=O)(=O)c1cc2c(Nc3ccc4scnc4c3)ncnc2cc1OCCO
